This note sets out measurements from US4575550A, “Platinum complexes” (Shionogi & Co., Ltd., priority 1981, dated 1986).

For data set [1], the system named is Sarcoma 180 tumor cells. The data set is described as follows: Antitumor activity against Sarcoma-180 (Experiment 4, intravenous for 5 days). The class given is in vivo, DS mice. The note with it: i.v., 5% glucose solution; for ED50: 14400 min. How it is done: (§1) Sarcoma 180 tumor cells (5×10^6 cells) are inoculated to DS mice (6 to 8 mice are employed in each test group) subcutaneously, and a predetermined amount of the test compounds is administered intraperitoneally for 5 days continuously from the next day of the inoculation.
The test was carried out in the same manner as in Experiment 1, wherein the test compounds were administered intravenously for 5 days.
The evaluation was made in the same manner as in Experiment 1.

The test system of data set [2] is Sarcoma 180 tumor cells. In words: Antitumor activity against Sarcoma-180 (Experiment 1, intraperitoneal for 5 days). It counts as in vivo, DS mice. Particulars: i.p.; for ED50 (effective dose which inhibits the growth of tumors by 50%): 14400 min. How it is done: as §1
The next data set has as its system kidney. The data set is described as follows: Nephro-toxicity (Experiment 3, once intraperitoneally). It counts as in vivo, male Sprague Dawley rats. Set-up: key: .uparw.: increase; slight increase; .dwnarw.: decrease; ±: no change. The note with it: once i.p., (A) 10 mg/kg, (B) 5 mg/kg, solvent 1: 5% glucose. The text has this: Seven weeks-old male Sprague Dawley rats are separately accommodated in metabolic cages of stainless steel, and solid feed (Clea Japan, INC., CA-1 for breeding) and water are given so that they can take them freely. They are adapted for 3 days and then the test compounds are once administered to rats intraperitoneally at 10:00 a.m. […] The urine excreted during a period of 10 a.m. on the day of administration to 10 a.m. on the next day is defined as urine of the first day; on the urine of the 0-4th days the volume of urine excreted, creatinine, osmotic pressure, urinary enzyme N-acetyl-β-D-glucosaminidase (NAG), and lysozyme (LEZ) are measured, and further urinary protein and urinary sugar are examined with Labstix®. In the morning on the 5th day the rats are anatomized under anesthesia with Ouropan-Soda®(Shionogi & Co., Ltd.; Hexobarbital sodium), and the blood and pathologic specimens of the kidney and the liver are collected in order to determine the level of plasma urea nitrogen and creatinine, and osmotic pressure.

For data set [3], the system named is Leukemia L1210 ascites cells. In words: Antitumor activity against L1210 (Experiment 2, intraperitoneal). Particulars: i.p. The class given is in vivo, BDF1 mice. As to the method: Leukemia L1210 ascites cells (10^5 cells) in mice are intraperitoneally inoculated to BDF1 mice (4 to 10 mice are employed in each test group), and on the next day a predetermined amount of the test compounds is administered intraperitoneally. The solvent for injection consists of 0.9% NaCl, 0.4% Polysorbate 80, 0.5% CMC, and 0.5% benzyl alcohol suspension.
From the average survival days (a) in the test group and those (b) of the untreated control group, the increase of lifespan (ILS) is calculated according to the following expression. [formula]

Setting [4] is: 0.9% NaCl, 0.4% Polysorbate 80, 0.5% CMC, 0.5% benzyl alcohol suspension.
[5] abbreviates: dose 2 × 1 (dose unit not given).
Where [6] appears, read: dose 5 × 1 (dose unit not given).
Where [7] appears, read: dose 10 × 1 (dose unit not given).
[8] abbreviates: dose 20 × 1 (dose unit not given).

As usually defined, the LD50 is the dose expected to kill half of the subjects tested. The term ED50 denotes the midpoint of the dose-response relation. As for `N.N.O=C1COCC(=O)[O][Pt][O]1` [D, Diglycolato-cis-diammineplatinum(II)], in the data set on Sarcoma 180 tumor cells [1], the “CI (curative index)” value stood at 3.3, the LD50 turned out to be 80.0 mg/kg and the ED50 is 24.1 mg/kg.
The molecule `N.N.O=C1C[O][Pt][O]1` [C, Glycolato-cis-diammineplatinum(II)] displayed an ED50 with Sarcoma 180 tumor cells [1] of 18.7 mg/kg.
As to Glycerato-cis-diammineplatinum(II), in the data set on Sarcoma 180 tumor cells [1], the “CI (curative index)” value is given as 4.2, the LD50 stood at 186.6 mg/kg and the ED50 is recorded as 44 mg/kg.
For the molecule “Glucuronato-cis-diammineplatinum(II) [(A)]”, in the data set with Sarcoma 180 tumor cells [2] (setting [4]), the “CI (curative index)” value is reported as 3.3, the “LD50 (50% lethal dose)” value was found to be 113.5 mg/kg and the “ED50 (effective dose which inhibits the growth of tumors by 50%)” value is reported as 34 mg/kg. Moreover, in the data set with Sarcoma 180 tumor cells [2] (solvent 5% glucose solution), the “CI (curative index)” value was found to be 2.8, the “LD50 (50% lethal dose)” value is 93.4 mg/kg and the “ED50 (effective dose which inhibits the growth of tumors by 50%)” value amounted to 33.4 mg/kg. In addition, in the data set on kidney, the “Body Weight (g)” value is given as “±”, the “Creatinine Clearance” value is “±”, the “Excrement of Creatinine (mg/24 hrs./100 g BW)” value is recorded as “±” and the “Excrement of Solute (mOsm/24 hrs./100 g BW)” value is recorded as “±”. Moreover, in the data set with kidney, the “Kidney Weight” value is on record as “±”, the “LEZ (urinary lysozyme)” value is given as “±”, the “Liver Weight” value was “±” and the “Osmotic Pressure of Urine (mOsm/kg)” value is “±”. In the data set on kidney, the “Urinary Glucose” value is on record as “±”, the “Urinary Protein” value is “±” and the “Volume of Urine (ml/24 hrs.)” value is “±”. Besides, in the data set with kidney (5th day), the “Plasma Creatinine” value is listed as “±”, the “Plasma Osmotic Pressure” value is “±” and the “Plasma Urea Nitrogen” value was “±”. Moreover, in data set [3] (setting [5]), the “increase of lifespan (ILS)” value turned out to be 4%. In addition, the “increase of lifespan (ILS)” value in data set [3] (setting [6]) is given as 12%. In addition, the “increase of lifespan (ILS)” value in data set [3] (setting [7]) stood at 14%. Further, the “increase of lifespan (ILS)” value in data set [3] (setting [8]) is on record as over 55%. Also, in the data set with Sarcoma 180 tumor cells [1], the “CI (curative index)” value is reported as 2.9, the LD50 amounted to 186 mg/kg and the ED50 turned out to be 63.4 mg/kg.
On to `N.N.[Cl][Pt][Cl]` [(B), Cisplatin, reference compound], for which the “ED50 (effective dose which inhibits the growth of tumors by 50%)” value is 7.3 mg/kg in the data set on Sarcoma 180 tumor cells [2] (setting [4]) and 5.8 mg/kg in the data set with Sarcoma 180 tumor cells [2] (solvent 5% glucose solution). Besides, the “increase of lifespan (ILS)” value in data set [3] (setting [5]) is listed as 11%; in data set [3] (setting [6]), 29%; in data set [3] (setting [7]) it was over 84%; in data set [3] (setting [8]), -26%. In the data set on Sarcoma 180 tumor cells [1], this molecule displayed an ED50 of 4.5 mg/kg.
